Test results as given in ChEMBL document CHEMBL4364310, “Design, synthesis and biological evaluation of novel α-aminophosphonate oxadiazoles via optimized iron triflate catalyzed reaction as apoptotic inducers” (Eur J Med Chem, 2019).

Key:
HepG2 = assay: Antiproliferative activity against human HepG2 cells assessed as reduction in cell viability incubated for 48 hrs by MTT assay; format: functional, cell-based; settings: HepG2, 48 h
HCT-116 [1] = assay: Antiproliferative activity against human HCT116 cells assessed as reduction in cell viability incubated for 48 hrs by MTT assay; format: functional, cell-based; settings: HCT-116, 48 h
MCF7 = assay: Antiproliferative activity against human MCF7 cells assessed as reduction in cell viability incubated for 48 hrs by MTT assay; format: functional, cell-based; settings: MCF7, 48 h
FHC = assay: Cytotoxicity against human FHC cells assessed as reduction in cell viability incubated for 48 hrs by MTT assay; format: cell-based
[2] = Selectivity index, ratio of IC50 for human FHC cells to IC50 for human HCT116 cells; format: toxicity; settings: FHC cells and HCT116 cells, read-out: Ratio IC50
HCT-116 [3] = assay: Induction of apoptosis in human HCT116 cells assessed as increase in caspase 3 level by ELISA relative to control; format: functional
HCT-116 [4] = assay: Induction of apoptosis in human HCT116 cells assessed as increase in caspase 8 level by ELISA relative to control; format: functional
HCT-116 [5] = assay: Induction of apoptosis in human HCT116 cells assessed as increase in caspase 9 level by ELISA relative to control; format: functional
HCT-116 [6] = assay: Induction of apoptosis in human HCT116 cells assessed as increase in cytochrome C by ELISA relative to control; format: functional
HCT-116 [7] = assay: Induction of apoptosis in human HCT116 cells assessed as increase in Bax level by ELISA relative to control; format: functional
HCT-116 [8] = assay: Induction of apoptosis in human HCT116 cells assessed as decrease in Bcl 2 level by ELISA relative to control (reference value: 10.1 +/- 0.73 ng/ml); format: functional
HCT-116 [9] = assay: Induction of apoptosis in human HCT116 cells assessed as early apoptotic cells incubated for 24 hrs by annexin V FITC and propidium iodide staining based flow cytometry (reference value: 0.9 %); format: functional
HCT-116 [10] = assay: Induction of apoptosis in human HCT116 cells assessed as late apoptotic cells incubated for 24 hrs by annexin V FITC and propidium iodide staining based flow cytometry (reference value: 0.39 %); format: functional
HCT-116 [11] = assay: Induction of apoptosis in human HCT116 cells assessed as necrotic cells incubated for 24 hrs by annexin V FITC and propidium iodide staining based flow cytometry (reference value: 0.46 %); format: functional
HCT-116 [12] = assay: Induction of cell cycle arrest in human HCT116 cells assessed as accumulation in preG phase incubated for 24 hrs by annexin V FITC and propidium iodide staining based flow cytometry (reference value: 1.75 %); format: functional
HCT-116 [13] = assay: Induction of cell cycle arrest in human HCT116 cells assessed as accumulation in G0/G1 phase incubated for 24 hrs by annexin V FITC and propidium iodide staining based flow cytometry (reference value: 46.72 %); format: functional
HCT-116 [14] = assay: Induction of cell cycle arrest in human HCT116 cells assessed as accumulation in G2/M phase incubated for 24 hrs by annexin V FITC and propidium iodide staining based flow cytometry (reference value: 18.29 %); format: functional
HCT-116 [15] = assay: Induction of cell cycle arrest in human HCT116 cells assessed as accumulation in S phase incubated for 24 hrs by annexin V FITC and propidium iodide staining based flow cytometry (reference value: 34.99 %); format: functional

SMILES	IC50 (HepG2) [µM]	IC50 (HCT-116 [1]) [µM]	IC50 (MCF7) [µM]	further results
CCOP(=O)(OCC)C(NNC(=O)CSc1nnc(-c2ccncc2)o1)c1ccc(O)c(O)c1 (stereo unspecified)	27.3	21.1	63.4	
CCOP(=O)(OCC)C(NNC(=O)CSc1nnc(-c2ccncc2)o1)c1cccs1 (stereo unspecified)	13.9	17.1	47.8	
CCOP(=O)(OCC)C(NNC(=O)CSc1nnc(-c2ccncc2)o1)c1ccc(F)cc1 (stereo unspecified)	21.5	31.3	70.6	
CCOP(=O)(OCC)C(NNC(=O)CSc1nnc(-c2ccncc2)o1)c1ccc(O)cc1 (stereo unspecified)	14.8	14.6	52.9	
CCOP(=O)(OCC)C(NNC(=O)CSc1nnc(-c2ccncc2)o1)c1ccc(C)cc1 (stereo unspecified)	19.5	17.6	86.3	
CCOP(=O)(OCC)C(NNC(=O)CSc1nnc(-c2ccncc2)o1)c1ccccc1 (stereo unspecified)	23.5	22.5	99.1	
CCOP(=O)(OCC)C(NNC(=O)CSc1nnc(-c2ccncc2)o1)c1ccc(Br)cc1 (stereo unspecified)	31	17.3	64.4	
CCOP(=O)(OCC)C(NNC(=O)CSc1nnc(-c2ccncc2)o1)c1ccc(C#N)cc1 (stereo unspecified)	13.6	12.7	41.7	
CCOP(=O)(OCC)C(NNC(=O)CSc1nnc(-c2ccncc2)o1)c1ccc2ccccc2c1 (stereo unspecified)	25.8	9.5	57.3	IC50 (FHC): 23.4 µM; selectivity ratio [2]: 2.46; fold change (FC) (HCT-116 [3]): 5.99; fold change (FC) (HCT-116 [4]): 3.64; fold change (FC) (HCT-116 [5]): 8.85; fold change (FC) (HCT-116 [6]): 5.69; fold change (FC) (HCT-116 [7]): 5.78; Activity (HCT-116 [8]): 5.945 ng/mL; Activity (HCT-116 [9]): 4.59%; Activity (HCT-116 [10]): 12.51%; Activity (HCT-116 [11]): 2.14%; Activity (HCT-116 [12]): 19.24%; Activity (HCT-116 [13]): 30.56%; Activity (HCT-116 [14]): 37.97%; Activity (HCT-116 [15]): 31.47%
CCOP(=O)(OCC)C(NNC(=O)CSc1nnc(-c2ccncc2)o1)c1ccccc1Cl (stereo unspecified)	19.2	9.2	62.9	IC50 (FHC): 35.9 µM; selectivity ratio [2]: 3.9; fold change (FC) (HCT-116 [3]): 7.78; fold change (FC) (HCT-116 [4]): 6.4; fold change (FC) (HCT-116 [5]): 11.61; fold change (FC) (HCT-116 [6]): 6.72; fold change (FC) (HCT-116 [7]): 6.18; Activity (HCT-116 [8]): 5.088 ng/mL; Activity (HCT-116 [9]): 7.26%; Activity (HCT-116 [10]): 15.69%; Activity (HCT-116 [11]): 3.28%; Activity (HCT-116 [12]): 26.23%; Activity (HCT-116 [13]): 24.91%; Activity (HCT-116 [14]): 46.33%; Activity (HCT-116 [15]): 28.76%
CCOP(=O)(OCC)C(NNC(=O)CSc1nnc(-c2ccncc2)o1)c1ccc([N+](=O)[O-])cc1 (stereo unspecified)	18.1	15	58.8	
CCOP(=O)(OCC)C(NNC(=O)CSc1nnc(-c2ccncc2)o1)c1cccc(OC)c1 (stereo unspecified)	53.9	19.2	52.3	
CCOP(=O)(OCC)C(NNC(=O)CSc1nnc(-c2ccncc2)o1)c1cc(OC)ccc1OC (stereo unspecified)	20.3	24.6	61.6	
COc1cccc2c1C(=O)c1c(O)c3c(c(O)c1C2=O)C[C@@](O)(C(=O)CO)C[C@@H]3O[C@H]1C[C@H](N)[C@H](O)[C@H](C)O1 [DOXORUBICIN]	10.4	9.4		
